Data taken from patent publication US12152046B2, “Oleic acid derivatives, pharmaceutical composition or food composition comprising said oleic acid derivatives, and their uses” (UNIVERSITÉ DE BOURGOGNE, priority 2018, dated 2024).
Entries after “also recorded” stand apart in the source; their conditions may differ.

Key:
CD36 = biological target: T1, CD36 (Mus musculus, UniProt Q08857); assay: Ca2+ signaling in mouse taste bud cells in presence or absence of the CD36 inhibitor SSO; assay type: cell-based; details: for action of the CD36 inhibitor SSO on the increase in [Ca2+]i induced by the compound: 20 μM SSO, mouse taste bud cells, Fura-2/AM; for CD36 agonist character: concluded from suppression by SSO
T1 construct: freshly isolated and primary cultured mice type II taste bud cells (expressing GPR120 and CD36) are used; endogenous in cells; host or cells: primary mouse taste bud cells from fungiform papillae
Procedure: (§1) The mouse taste bud cells were seeded in 24-well plates (with glass bottom), containing poly-D-lysine for better adhesion to the surface. After 24 h, taste cells were incubated for 45 minutes with a fluorescent probe, Fura-2/AM (1 μM) in calcium buffer (110 mM NaCl, 5.4 mM, KCl, 25 mM, NaHCO3, 0.8 mM, MgCl2, 0.4 mM, KH2PO4, 20 mM, Hepes-Na, 0.33 mM, NaHPO4, 1.2 mM, CaCl2), pH 7.4). Then, the cells are washed with phosphate buffer saline (PBS) and taken up in calcium buffer.
(§2) Especially, the increases in [Ca^2+]i were measured as follows: the mice taste bud cells were cultured on Willico-Dish wells with a glass bottom and loaded with a fluorescent probe, Fura-2/AM. The changes in intracellular Ca^2+ (F340/F380) were monitored under the Nikon microscope (TiU) by using S-fluor 40× oil immersion objective. The planes were taken at Z intervals of 0.3 μm, and NIS-Elements software was used to deconvolve the images. The microscope was equipped with EM-CCD (Lucas) camera for real time recording of 16-bit digital images. The dual excitation fluorescence imaging system was used for studies of individual cells. The changes in intracellular Ca^2+ were expressed as ΔRatio, which was calculated as the difference between the peak F340/F380 ratio. The data were summarized from the large number of individual cells (20-40 cells in a single run, with 3-9 identical experiments done in at least three cell preparations). The results were analyzed with the NIS-elements software, the variation in [Ca^2+]i is expressed as A ratio (F340/F380) which was calculated with the difference of spectra at two wavelengths, i.e., 340 nm and 380 nm.
CD36: in order to assess if the oleic acid derivatives according to the invention exert their actions via CD36, the sulfo-N-succinimidyl oleate (SSO) was used. SSO is a CD36 inhibitor/blocker/antagonist.
Experiments were performed in the presence or absence of SSO with respect to calcium signaling to verify whether our analogs act well via this lipid receptor. Especially, for this assay with compounds 3a, 2a and oleic acid (control) were tested.

mouse taste bud cells = assay: Ca2+ signaling (Fura-2/AM, F340/F380) in mouse taste bud cells; assay type: cell-based; details: for increase in intracellular free calcium concentration [Ca2+]i (F340/F380): mouse taste bud cells loaded with Fura-2/AM; for fat taste receptor(s) through which the compound acts: Ca2+ signaling with SSO or AH7614
Procedure: The technique to isolate taste bud cells from mouse fungiform papillae has been described in the publication of El-Yassimi A, Hichami A, Besnard P, Khan N A. “Linoleic acid” induces calcium signaling, Src kinase phosphorylation, and neurotransmitter release in mouse CD36-positive gustatory cells”—J. Biol. Chem. 2008 May 9, 283(19), 12949-59.
Briefly, lingual epithelium was separated by enzymatic dissociation which contained the following: elastase and dispase mixture, 2 mg/ml each, in Tyrode's buffer (120 mM NaCl; 5 mM KCl; 10 mM HEPES ((4-(2-hydroxyethyl)-1-piperazineethanesulfonic acid); 1 mM CaCl2); 1 mM MgCl2; 10 mM glucose; 10 mM Na pyruvate, pH 7.4). The taste bud cells were isolated by incubating lingual epithelium in RPMI 1640 medium containing 2 mM EDTA, 1.2 mg/ml elastase, 0.6 mg/ml collagenase (type I), and 0.6 mg/ml trypsin inhibitor at 37° C. for 10 minutes, followed by centrifugation (600 g, 10 minutes). The cell populations, after separation, were suspended in fresh RPMI 1640 medium containing 10% fetal calf serum, 200 U/ml penicillin, and 0.2 mg/ml streptomycin, seeded onto a Poly-D-Lysine-coated dishes, and cultured for 24 hours. At the end of this period, the cells were used for the experiments or stained with trypan blue to assess their viability.
as §1
The changes in intracellular Ca^2+ (F340/F380) were monitored under a Nikon microscope (TiU) by using an S Fluor 40× oil immersion objective.
as §2

mice = assay: Two-bottle preference test; assay type: in vivo, mouse; details: for gustatory preference versus control solution (xanthan gum) / concentration preferred (optimal preference) in two-bottle preference test: 12 hours; for gustatory preference versus control solution (xanthan gum): 10 to 100 μM; for concentration preferred (optimal preference) in two-bottle preference test: versus xanthan gum control
Procedure: Eight weeks old, male mice (C57BI/6 black) were purchased from the “Janvier Elevage” (Le Mans) and used for these experiments.
The mice are placed individually in cages in a controlled environment (humidity and constant temperature) and have free access to a standard diet. 6 hours before the tests, the mice are deprived of water.
During the behavioral experiments, the mice were offered two bottles simultaneously for 12 hours (night period).
The mice are subjected to a choice between the “control” solution and the experimental solution (FIG. 4 and FIG. 5). • control solutions contain 0.3% xanthan gum, w/v, (Sigma Life Science, USA) in water to reproduce lipid texture and minimize bias due to differences in appearance between the two bottles; • the experimental solution contains, either the “test compound” according to the invention at a concentration varying from 10 to 100 μM (compound 3a, FIG. 4 or compound 2a, FIG. 5) or only xanthan gum at […] (control test). To avoid the preference for one side, the position of each bottle is changed during each test.
To estimate the consumption of control and experimental solutions, the bottles are weighed before and after each experiment. The mice are allowed to take rest for 48 hours between each experiment.

obese C57BL/6J mice = assay: Diet-induced obesity, body weight on high-fat diet; assay type: in vivo, mouse; details: for body weight in obese mice: HFD 28 weeks, analogue 75 μM in feeder bottles from 10th week, versus HFD only
Procedure: C57BL/6J male mice, aged between 6 to 10 weeks (16-20 g), were obtained from Janvier Labs (France). They were housed individually in a controlled environment with a 12 h light/dark cycle with food (SAFE, France) and water ad libitum. The palm oil (Huilerie Vigean, France) was the main fat component in high-fat diets. The high-fat diet was prepared weekly and stored at 4° C. until further use. The study was conducted as per Declaration of Helsinki and European ethical guidelines for the care and use of animals for experimentation. All the experimental protocols (protocol number: 16158) were approved by the Regional Ethical Committee of the University of Burgundy (Dijon, France).
The mice were grouped at random (n=10/group) and fed with either of the following diets: standard diet (STD) or high-fat diet (HFD). The body weight, food, and water intake were measured, weekly.
(§3) After 10 weeks of feeding the diets, obese animals were divided into two groups: one groups continued to be fed on the same HFD; however, another group was fed on the same diet and received either NKS-3 or NKS-5) until 28th of weeks of experimentation. At the end, the animals were sacrificed, under a fasting condition, and used for different analysis in blood and different tissues.
In order to elucidate the beneficial effects and especially during obesity, experiments were conducted on obese C57BL/6J mice. […] In order to test the curative/interventional effects on obesity, the animals were divided into two groups: one group that consumed only the high-fat diet (HFD) and the other consuming the same diet and also receiving 3a or 2a in ad libitum baby bottles/feeders. From the 10th week of the diet, we introduced lipid analogues into the bottles at 75 μM that corresponded to their preference in the double choice test. […] In addition, the decrease in obesity was maintained until the 28th week of feeding a HFD (FIGS. 6A and 6B). The study was stopped after the 28th week of the diet because the animals reached the age of 34 weeks and beyond that age, the aging factor may interfere with the growth.

GPR120 = biological target: T2, GPR120 (Mus musculus, UniProt Q7TMA4); assay: Ca2+ signaling in mouse taste bud cells in presence or absence of the GPR120 antagonist AH7614; assay type: cell-based; details: AH7614 20 μM, compound at 50 μM, cells pre-incubated 15 minutes
T2 construct: freshly isolated and primary cultured mice type II taste bud cells (expressing GPR120 and CD36) are used; endogenous in cells; host or cells: primary mouse taste bud cells from fungiform papillae
T2 sequence (Q7TMA4 1-361): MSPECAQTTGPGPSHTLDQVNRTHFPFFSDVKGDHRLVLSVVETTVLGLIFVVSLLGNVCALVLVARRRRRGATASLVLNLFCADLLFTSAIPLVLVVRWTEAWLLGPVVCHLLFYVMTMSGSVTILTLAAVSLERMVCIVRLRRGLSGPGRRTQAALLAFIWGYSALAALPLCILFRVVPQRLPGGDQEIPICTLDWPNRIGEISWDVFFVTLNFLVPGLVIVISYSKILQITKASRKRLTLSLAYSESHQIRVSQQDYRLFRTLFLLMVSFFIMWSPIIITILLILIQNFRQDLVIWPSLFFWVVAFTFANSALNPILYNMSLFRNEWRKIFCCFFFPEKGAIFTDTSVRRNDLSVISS
Procedure: as §1
as §2, with “The microscope was equipped with EM-CCD (Lucas) camera for real time recording of 16-bit digital images.” left out, “The data were summarized from the large number of individual cells (20-40 cells in a single run, with 3-9 identical experiments done in at least three cell preparations).” left out, “nm. […]” for “nm.”

C-reactive protein (CRP) = assay: CRP concentration in sera of obese mice; assay type: in vivo, mouse; details: obese mice on HFD, versus HFD only
Procedure: as §3
The CRP concentration was determined in sera by an automatic analyzer (Gilford Model 2000 system, a Beckman System T.R).

T1 sequence (Q08857 whole entry): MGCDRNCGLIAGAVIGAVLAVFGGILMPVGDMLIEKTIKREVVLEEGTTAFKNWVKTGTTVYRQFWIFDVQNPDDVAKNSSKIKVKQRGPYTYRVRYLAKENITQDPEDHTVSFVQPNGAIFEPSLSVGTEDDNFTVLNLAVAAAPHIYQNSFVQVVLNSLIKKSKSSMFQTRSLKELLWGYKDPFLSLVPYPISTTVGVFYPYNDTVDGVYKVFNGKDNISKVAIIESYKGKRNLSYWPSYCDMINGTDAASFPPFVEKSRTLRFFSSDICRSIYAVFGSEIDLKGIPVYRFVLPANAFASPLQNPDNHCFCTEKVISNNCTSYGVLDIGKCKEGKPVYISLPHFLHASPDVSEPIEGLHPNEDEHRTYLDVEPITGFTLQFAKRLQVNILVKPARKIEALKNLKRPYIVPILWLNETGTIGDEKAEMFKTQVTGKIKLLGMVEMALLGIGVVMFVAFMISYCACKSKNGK

Row | Compound | action of the CD36 inhibitor SSO on the increase in [Ca2+]i induced by the compound (CD36; listed as OA) | increase in intracellular free calcium concentration [Ca2+]i (F340/F380) (mouse taste bud cells) | concentration preferred in two-bottle preference test (mice) | action of the CD36 inhibitor SSO on the increase in [Ca2+]i induced by the compound (CD36) | CD36 agonist character (CD36) | body weight in obese mice (obese C57BL/6J mice) | anti-obesity effect, comparison of the two analogues (obese C57BL/6J mice; HFD, 75 μM in feeder bottles) | effect of the GPR120 inhibitor AH7614 on the increase in [Ca2+]i induced by the compound (GPR120) | fat taste receptor(s) through which the compound acts (mouse taste bud cells) | gustatory preference versus control solution (xanthan gum) (mice) | concentration preferred (optimal preference) in two-bottle preference test (mice) | concentration of circulating CRP (C-reactive protein (CRP))
1 | CCCCCCCC/C=C\CCCCCCCC(=O)O [oleic acid] | completely blocked; also recorded: partially blocked | rapid and significant rise in calcium signaling | 7.7 mM | – | – | – | – | – | – | – | – | –
2 | CCCCCCCC/C=C\CCCCCCCC(=O)OCC1(C)COC1 [Compound 2a, (Z)-(3-methyloxetan-3-yl)methyl octadec-9-enoate] | – | rapid and significant rise in calcium signaling; also recorded: huge increase | – | partially blocked; also recorded: curtailed, but not completely suppressed | partial agonist | significant decrease in body weight | more powerful than 3a | significantly curtailed, but not suppressed | bounds to CD36; also recorded: acts on both receptors CD36 and GPR120 | spontaneous preference | 75 µM | significantly decreased
3 | CCCCCCCC/C=C\CCCCCCCCP(=O)(OCC)OCC [Compound 3a, diethyl (Z)-octadec-9-en-1-yl phosphonate] | – | rapid and significant rise in calcium signaling; also recorded: huge increase | – | completely blocked; also recorded: completely suppressed | complete CD36 agonist | significant decrease in body weight | – | – | acts both to CD36 and GPR120 | spontaneous preference | 75 µM | significantly decreased
